Test results taken from ChEMBL document CHEMBL1201862, “PubChem BioAssay data set” (2004).
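48-hour exposure; five concentrations; linearly interpolated endpoints. GI50: concentration for 50% inhibition of growth.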 The source made the active and inactive calls. Rule as the data show it: active = GI50 up to about 1.1 µM and inactive = higher.

What was measured:
Test in all cases: DTP human tumour cell line panel, 48 h
NCI-H226 = system: NCI-H226
RPMI-8226 = system: RPMI-8226
K562 = system: K562
OVCAR-8 = system: OVCAR-8
UACC-62 = system: UACC-62
SF-295 = system: SF-295
NCI-H23 = system: NCI-H23
PC-3 = system: PC-3
LOX IMVI = system: LOX IMVI
SW-620 = system: SW-620
SK-MEL-28 = system: SK-MEL-28
OVCAR-5 = system: OVCAR-5
786-0 = system: 786-0
MCF7 = system: MCF7
SN12C = system: SN12C
Malme-3M = system: Malme-3M
SK-OV-3 = system: SK-OV-3
IGROV-1 = system: IGROV-1
RXF 393 = system: RXF 393
A498 = system: A498

With CN(C)CCSS(=O)(=O)O the GI50 (NCI-H226) was > 100 µM (inactive), the GI50 (RPMI-8226) was > 100 µM (inactive) and the GI50 (K562) was > 100 µM (inactive). The GI50 (OVCAR-8) was > 100 µM (inactive), the GI50 (UACC-62) was > 100 µM (inactive) and the GI50 (SF-295) was 13.3 µM (inactive). The GI50 (NCI-H23) was > 100 µM (inactive), the GI50 (PC-3) was > 100 µM (inactive) and the GI50 (LOX IMVI) was 40.2 µM (inactive). For the same molecule, the GI50 (SW-620) was > 100 µM (inactive), the GI50 (SK-MEL-28) was > 100 µM (inactive) and the GI50 (OVCAR-5) was > 100 µM (inactive). The GI50 (786-0) was > 100 µM (inactive), the GI50 (MCF7) was > 100 µM (inactive) and the GI50 (SN12C) was > 100 µM (inactive). The GI50 (Malme-3M) was > 100 µM (inactive), the GI50 (SK-OV-3) was 29.4 µM (inactive) and the GI50 (IGROV-1) was > 100 µM (inactive). For the same molecule, the GI50 (RXF 393) was > 100 µM (inactive) and the GI50 (A498) was > 100 µM (inactive).
CC(=O)c1ccc(Oc2c3ccccc3nc3ccccc23)cc1 was tested, and the GI50 (NCI-H226) was 9.1 µM (inactive), the GI50 (RPMI-8226) was 2.77 µM (inactive) and the GI50 (K562) was 3.41 µM (inactive). The GI50 (OVCAR-8) was 7.83 µM (inactive), the GI50 (UACC-62) was 6.41 µM (inactive) and the GI50 (SF-295) was 14.6 µM (inactive). For the same molecule, the GI50 (NCI-H23) was 22.5 µM (inactive), the GI50 (PC-3) was 6.89 µM (inactive) and the GI50 (LOX IMVI) was 5.86 µM (inactive). For the same molecule, the GI50 (SW-620) was 4.33 µM (inactive), the GI50 (SK-MEL-28) was 14.7 µM (inactive) and the GI50 (OVCAR-5) was 9.68 µM (inactive). For the same molecule, the GI50 (786-0) was 3.4 µM (inactive), the GI50 (MCF7) was 3.22 µM (inactive) and the GI50 (SN12C) was 5.08 µM (inactive). For the same molecule, the GI50 (Malme-3M) was 12.6 µM (inactive), the GI50 (SK-OV-3) was 15.7 µM (inactive) and the GI50 (IGROV-1) was 4.89 µM (inactive). For the same molecule, the GI50 (RXF 393) was 7.91 µM (inactive) and the GI50 (A498) was 16.1 µM (inactive).
COc1ccc(OC)c2c1-c1nnnn1CCC2(C)C was tested, and the GI50 (NCI-H226) was > 100 µM (inactive), the GI50 (RPMI-8226) was > 100 µM (inactive) and the GI50 (K562) was > 100 µM (inactive). The GI50 (OVCAR-8) was > 100 µM (inactive), the GI50 (UACC-62) was > 100 µM (inactive) and the GI50 (SF-295) was > 100 µM (inactive). The GI50 (NCI-H23) was > 100 µM (inactive), the GI50 (PC-3) was > 100 µM (inactive) and the GI50 (LOX IMVI) was > 100 µM (inactive). The GI50 (SW-620) was > 100 µM (inactive), the GI50 (SK-MEL-28) was > 100 µM (inactive) and the GI50 (OVCAR-5) was > 100 µM (inactive). The GI50 (786-0) was > 100 µM (inactive), the GI50 (MCF7) was > 100 µM (inactive) and the GI50 (SN12C) was > 100 µM (inactive). For the same molecule, the GI50 (Malme-3M) was > 100 µM (inactive), the GI50 (SK-OV-3) was > 100 µM (inactive) and the GI50 (IGROV-1) was > 100 µM (inactive). For the same molecule, the GI50 (RXF 393) was > 100 µM (inactive) and the GI50 (A498) was > 100 µM (inactive).
With CCCNC(=O)c1cc(NC(=O)c2cc(NC(=O)/C=C/c3ccccc3)c(OC)c(OC)c2)c(OC)c(OC)c1 the GI50 (NCI-H226) was 0.0216 µM (active), the GI50 (RPMI-8226) was 27 µM (inactive) and the GI50 (K562) was > 100 µM (inactive). For the same molecule, the GI50 (OVCAR-8) was 4.51 µM (inactive), the GI50 (UACC-62) was 0.148 µM (active) and the GI50 (SF-295) was 3.16 µM (inactive). For the same molecule, the GI50 (NCI-H23) was 11.4 µM (inactive), the GI50 (PC-3) was 6.87 µM (inactive) and the GI50 (LOX IMVI) was 2.96 µM (inactive). For the same molecule, the GI50 (SW-620) was > 100 µM (inactive), the GI50 (SK-MEL-28) was 14.5 µM (inactive) and the GI50 (OVCAR-5) was 12.7 µM (inactive). The GI50 (786-0) was 3.61 µM (inactive), the GI50 (MCF7) was 7.98 µM (inactive) and the GI50 (SN12C) was 0.248 µM (active). The GI50 (Malme-3M) was 3.08 µM (inactive), the GI50 (SK-OV-3) was 7.62 µM (inactive) and the GI50 (IGROV-1) was 12.4 µM (inactive). The GI50 (RXF 393) was 2.42 µM (inactive) and the GI50 (A498) was 11.4 µM (inactive).
In the case of O=C(NC1(C(=O)O)CC1c1ccccc1)c1ccccc1 (stereo not given), the GI50 (NCI-H226) is reported as > 100 µM (inactive), the GI50 (RPMI-8226) is reported as > 100 µM (inactive) and the GI50 (K562) is reported as > 100 µM (inactive). For the same molecule, the GI50 (OVCAR-8) was > 100 µM (inactive), the GI50 (UACC-62) was > 100 µM (inactive) and the GI50 (SF-295) was > 100 µM (inactive). The GI50 (NCI-H23) was > 100 µM (inactive), the GI50 (PC-3) was > 100 µM (inactive) and the GI50 (LOX IMVI) was > 100 µM (inactive). The GI50 (SW-620) was > 100 µM (inactive), the GI50 (SK-MEL-28) was > 100 µM (inactive) and the GI50 (OVCAR-5) was > 100 µM (inactive). The GI50 (786-0) was > 100 µM (inactive), the GI50 (MCF7) was > 100 µM (inactive) and the GI50 (SN12C) was > 100 µM (inactive). The GI50 (Malme-3M) was > 100 µM (inactive), the GI50 (SK-OV-3) was > 100 µM (inactive) and the GI50 (IGROV-1) was > 100 µM (inactive). For the same molecule, the GI50 (RXF 393) was > 100 µM (inactive) and the GI50 (A498) was > 100 µM (inactive).
In the case of CCOC(=O)COC1=Nc2cc(OC)c(OC)c3nc(Cl)cc(c23)C1=O, the GI50 (NCI-H226) is reported as 11.1 µM (inactive), the GI50 (RPMI-8226) is reported as 1.52 µM (inactive) and the GI50 (K562) is reported as 1.2 µM (inactive). For the same molecule, the GI50 (OVCAR-8) was 2.43 µM (inactive), the GI50 (UACC-62) was 1.78 µM (inactive) and the GI50 (SF-295) was 10 µM (inactive). For the same molecule, the GI50 (NCI-H23) was 2.25 µM (inactive), the GI50 (PC-3) was 1.79 µM (inactive) and the GI50 (LOX IMVI) was 1.98 µM (inactive). For the same molecule, the GI50 (SW-620) was 2.16 µM (inactive), the GI50 (SK-MEL-28) was 1.99 µM (inactive) and the GI50 (OVCAR-5) was 1.94 µM (inactive). The GI50 (786-0) was 1.62 µM (inactive), the GI50 (MCF7) was 1.7 µM (inactive) and the GI50 (SN12C) was 1.8 µM (inactive). For the same molecule, the GI50 (Malme-3M) was 1.36 µM (inactive), the GI50 (SK-OV-3) was 10.1 µM (inactive) and the GI50 (IGROV-1) was 2.37 µM (inactive). The GI50 (RXF 393) was 1.75 µM (inactive) and the GI50 (A498) was 11.4 µM (inactive).
CC1=CC(C)C/C=C/C2C3OC3(C)C(C)C3C(Cc4c[nH]c5ccccc45)NC(=O)C23C(=O)C=CC(=O)C1O (stereo not given) was tested, and the GI50 (NCI-H226) was 12.9 µM (inactive), the GI50 (RPMI-8226) was 0.272 µM (active) and the GI50 (K562) was 3.06 µM (inactive). For the same molecule, the GI50 (OVCAR-8) was 19.5 µM (inactive), the GI50 (UACC-62) was 15.2 µM (inactive) and the GI50 (SF-295) was 11.9 µM (inactive). The GI50 (NCI-H23) was 14.5 µM (inactive), the GI50 (PC-3) was 11.6 µM (inactive) and the GI50 (LOX IMVI) was 2.88 µM (inactive). The GI50 (SW-620) was 2.02 µM (inactive), the GI50 (SK-MEL-28) was 14.7 µM (inactive) and the GI50 (OVCAR-5) was 12.5 µM (inactive). For the same molecule, the GI50 (786-0) was 3.25 µM (inactive), the GI50 (MCF7) was 5.78 µM (inactive) and the GI50 (SN12C) was 8.77 µM (inactive). The GI50 (Malme-3M) was 1.56 µM (inactive), the GI50 (SK-OV-3) was 12.4 µM (inactive) and the GI50 (IGROV-1) was 11.1 µM (inactive). The GI50 (RXF 393) was 1.38 µM (inactive) and the GI50 (A498) was 0.213 µM (active).
